Source: a melting point compilation (Tetko et al.; mined from patent text by program, amines drawn as free bases though some values may be those of a salt)

Row | melting point | SMILES
1 | 208 to 210 °C | CCc1cccc(CC)c1NC(=O)NC1(c2cccs2)CCCCC1
2 | > 250 °C | N#Cc1cccc(C2C3=C(CCS3)NC3=C2C(=O)CCC3)c1 (single isomer, unassigned; (+))
3 | 173 to 175 °C | Cc1nn(C(N)=O)c2c1C(=O)CC(C)(C)C2
4 | 80 °C | COc1ccc(Cl)cc1C(CCO)c1ccccc1 (centres undefined)
5 | 145 to 150 °C | Cc1noc(NS(=O)(=O)c2ccc(Cl)cc2)c1Br
6 | 214 °C | Cn1ccnc1S(=O)(=O)C(C#N)=Cc1c(Cl)n(CC2CC2)c2ccccc12
7 | 127 to 130 °C | O=C1NN(C(=O)Nc2ccc(OCc3ccccc3)cc2)C(c2ccccc2)C1c1ccccc1 (centres undefined)
8 | 203 to 206 °C | CC(c1oc2ccccc2c(=O)c1-c1cccc(F)c1)n1nc(-c2ccc(F)nc2)c2c(N)ncnc21 (centres undefined)
9 | 67.5 to 69 °C | CC(C)(C)c1cc(CCCO)cc(C(C)(C)C)c1O
10 | 168 °C | CC(C)C(NC(=O)c1ccc(-c2ccccc2)cc1)C(=O)O (centres undefined)
11 | 173 to 175 °C | CCCCCCCCCCCCOc1ccc(C2=C(O)CSC2=O)cc1
12 | 171 to 175 °C | Nc1ccc(S(=O)(=O)Nc2ccccc2C(=O)NCCCn2ccnc2)cc1
13 | 162 to 164 °C | CCn1cc(CS(C)(=O)=O)c(=O)c2ccccc21
14 | 84 °C | COc1cc(CCC(=O)C2CCCC2=O)cc(OS(=O)(=O)c2ccc(C)cc2)c1OC (centres undefined)
15 | 127 to 128 °C | CC(=O)Nc1ccc(F)c(F)c1
16 | 98 to 100 °C | COc1ccc2c(c1)C(=S)N(C)CC(CCCl)O2 (centres undefined)
17 | 72 to 76 °C | O=C(Cl)c1c(Cl)c(Cl)c(C(F)(F)F)c(Cl)c1Cl
18 | 110 to 112 °C | CSc1cc(C)nc(SC)c1NC(=O)CCN1CCN(CCSc2nc3ccccc3o2)CC1
19 | 108 to 110 °C | COC(=O)c1ccc2c(ccn2C)c1
20 | 128 to 133 °C | CCS(=O)(=O)N[C@H](C(=O)NCCc1ccc(OC/C=C/c2ccccc2)c(OC)c1)C(C)C
21 | 234 °C | N[C@@H](Cc1ccccc1)c1nc2c(C(F)(F)F)cccc2c(O)c1C(=O)Nc1nccs1
22 | 216 °C | Cc1cc2cc(CN3CCCC3)cnc2cc1NC(=O)c1ccc(-c2ccc(Cl)s2)cc1
23 | 39 to 41 °C | CCCCCCCCCCCCCCCCCCOCCO

Row | melting point | SMILES
24 | 124 to 125 °C | CCC(CC)N(O)C(=O)NCCCC(C)CNC(=O)N(O)C(CC)CC (centres undefined)
25 | 68 to 71 °C | COc1ccc(Nc2ccn(Cc3ccccc3)n2)cc1
26 | 129 to 130 °C | CC(=O)Nc1c([N+](=O)[O-])cnn1-c1c(F)cc(C(F)(F)F)cc1Cl
27 | 153 °C | CN(C)CC(=O)Nc1cccc2nc(N[C@@H]3CCc4ccccc43)ccc12
28 | 142 to 145 °C | O=C(c1ccccc1)c1ccc2nc(CS(=O)c3ccccn3)[nH]c2c1 (centres undefined)
29 | 102 to 104 °C | CC(C)(C)OC(=O)N1CCC(CCC(=O)N2CCC[C@@H](C(=O)O)C2)CC1
30 | 116 to 118 °C | COc1cccc(-c2ccc(-c3ccc(C(=O)O)cc3)cc2-c2ccc3c(c2)C(C)(C)CCC3(C)C)c1
31 | 217 to 219 °C | Nc1noc(-c2cc3c(Oc4ccc(Cl)cc4)cncc3s2)n1
32 | 145 to 150 °C | Cc1ccnc(CSc2nc3ccccc3c(=O)n2-c2ccccc2)c1
33 | 125 to 127 °C | CCOC(=O)c1c2ccc(CC(=O)NOCCCN(CC)CC)ccc-2c(C(=O)OCC)c1N
34 | 168 °C | CC(=O)N[C@@H](C)COc1ccc2nc(-c3ccc(OCC4CC4)c(F)c3F)oc2c1F
35 | 191 to 193 °C | COc1cc(Nc2c(C#N)cnc3cc(OCC4CCN(C)CC4)ccc23)c(Cl)cc1Cl
36 | 137 to 140 °C | CCOC(=O)NCC(=O)c1ccc(O)cc1
37 | 87 to 87.5 °C | Nc1ccccc1OC1CCCC1
38 | 159 to 161 °C | CCCN(c1ccncc1)N1C(=O)C2(Cc3ccccc3C2)c2ccccc21
39 | 150 to 151 °C | Cc1c(CC(=O)O)c2cc(OCc3csc(-c4ccccc4)n3)ccc2n1Cc1ccc(Cl)cc1
40 | 145 to 148 °C | CN1C(=O)C(S)=C(S)C1=O
41 | 112 °C | CCCCc1ccc2ncn(Cc3ccc(-c4ccccc4-c4nnnn4COC)cc3)c(=O)c2c1
42 | 188 to 193 °C | O=C(O)Cc1c(C(=O)O)c2cc(Oc3cccc(OC(F)(F)F)c3)ccc2n1-c1ccc(OC(F)(F)F)cc1
43 | 75 to 78 °C | CCOC(=O)NCC1CO1 (centres undefined)
44 | 136 to 139 °C | Cc1sc(N)c(C(=O)c2ccccn2)c1C
45 | 171 °C | CC(=O)Nc1ccccc1C(=O)NCCN1CCC(Nc2nc3ccccc3n2Cc2ccc(F)cc2)CC1
46 | 130 to 132 °C | COc1ccc2c(c1OC)CC1C(=O)N(Cc3ccccc3)C(=O)C21 (centres undefined)

Row | melting point | SMILES
47 | 93 to 94 °C | CC(C)(C)OC(=O)N[C@@H](CC1CCCCC1)[C@@H](O)[C@@H](O)CN=[N+]=[N-]
48 | 86.5 to 88 °C | CC(=O)OCc1ccccc1C(=O)C(N)=O
49 | 227 to 229 °C | COc1ccc(-c2nc3cnccc3[nH]2)cc1S(C)=O (centres undefined)
50 | > 300 °C | CC1CC(=O)Nc2nc(C#N)c3ncccc3c21 (centres undefined)
51 | 146 to 148 °C | CCn1cc(-c2ccccc2)nc(S(=O)(=O)Cc2ccc(Cl)cc2)c1=O
52 | 136 °C | N=C(N)NCCCCCC(=O)Oc1ccc2cc(C(=N)N)ccc2c1
53 | 177 to 179 °C | CCn1nc(-c2ccc(F)cc2)c(-c2ccc(S(C)(=O)=O)cc2)cc1=O
54 | 199 to 200 °C | Cn1cc(-c2cc3cccnc3[nH]2)c2cc(O)ccc21
55 | 164 °C | CC(C)C1NC(c2ccccc2)=NNC1=O (centres undefined)
56 | 115 to 116 °C | COc1ccc(C=CC(=O)Nc2c(CCO)nc3c(C)cc(C)cc3c2-c2ccccc2Cl)cc1OC
57 | 218 to 219 °C | C(=C(c1ccccc1)c1ccccc1)c1ccc(N(c2ccccc2)c2ccc(N(c3ccccc3)c3ccccc3)cc2)cc1
58 | 198 to 200 °C | O=C(O)COc1cccc2c1CCc1sc(SCc3ccc(-c4ccccc4)cc3)nc1-2
59 | 181 to 182 °C | Nc1cccc(Sc2ccc3c(c2)OCC(=O)N3)c1
60 | 102 °C | CC(C)=C(C=O)CC(=O)O
61 | 238 to 240 °C | CCCCN1C(=O)CC(C(=O)Nc2nccs2)C(=O)c2ccc(Cl)cc21 (centres undefined)
62 | 270 to 272 °C | O=C(NCCc1ccccc1F)c1c(Cl)ccc2nc(N3CCC(C(=O)O)CC3)ccc12
63 | 196 °C | Cc1cc2c(cc1-c1ccc(F)cc1)NC(=O)CC(c1cccc(-n3ccnc3)c1)=N2
64 | 80 to 81 °C | OCCCc1ccc2ccccc2c1OCc1ccccc1
65 | 109 to 111 °C | Cc1ccc(Cl)c(OCC(O)CNCCNC(=O)NCCCO[N+](=O)[O-])c1 (centres undefined)
66 | 197 to 198 °C | COc1ccc(S(=O)(=O)N2C(=O)[C@@](c3ccccc3OC)(N3C[C@H](OC(=O)C4CCCCC4)C[C@H]3C(=O)N(C)C)c3cc(Cl)ccc32)c(OC)c1
67 | 332 to 333 °C | C[C@H](NC(=O)c1c[nH]c2ncc(-c3cn(-c4cccc(C(F)(F)F)c4)cn3)nc12)C(C)(C)C
68 | 228 to 231 °C | Cc1ccc(CC2CCN(C(=O)C(=O)Nc3ccc4c(c3)OCC(=O)N4)CC2)cc1
69 | 68 to 70 °C | O=[N+]([O-])c1cccc(CBr)c1CBr

Row | melting point | SMILES
70 | 86.8 to 90 °C | COc1cc(C=O)ccc1OCC(=O)OC(C)(C)C
71 | 118 to 119 °C | O=C1OC[C@H](c2ccccc2)N1C(=O)C1C=C1
72 | 171 °C | CC(O)Cn1cnc2cnc3ccccc3c21 (centres undefined)
73 | 222 to 224 °C | O=C(Nc1ccc(N2CC3CC3C2)nc1)c1cc2cc(F)cnc2n1Cc1cccc(F)c1 (centres undefined)
74 | 170 °C | COCC(=O)OC[C@@H]1CC(c2ccc(-c3ccc(N4C[C@H](Cn5ccnn5)OC4=O)cc3F)cn2)=NO1
75 | 102 to 103 °C | O=C(O)C(=O)c1ccc(OCCOc2ccccc2)cc1
76 | 95 to 98 °C | c1cnc(-c2noc(C3CC3)n2)cn1
77 | 171 to 172 °C | Cc1cc2ncnn2nc1OCC(C)(C)CCCS(N)(=O)=O
78 | 195 to 197 °C | COc1ccc(C)c2nc(Cc3ccc(Cl)cc3)[nH]c12
79 | 266 to 268 °C | CC1(C)C(=O)Nc2cc3[nH]c(C4CC4)nc3cc21
80 | 111 to 113 °C | CCCCCCOC(=O)NCc1ccc2c(c1)C(=O)N(C1CCC(=O)NC1=O)C2=O (centres undefined)
81 | 69 to 72 °C | COCc1c(I)cc(Cl)nc1OC
82 | 162 to 163 °C | CCOC(=O)c1cc2cc(OCCCS(C)(=O)=O)cc([N+](=O)[O-])c2[nH]1
83 | 176 to 179 °C | CCOC(=O)C1=C(c2ccc(-c3ocnc3C)cc2)NC(C)=C(C(=O)Nc2ccccn2)C1c1ccccc1Cl (centres undefined)
84 | 200 to 205 °C | CC(NC(=O)Cc1cc(F)cc(F)c1)C(=O)NC1(c2ccccc2)NC(=O)Cc2ccccc21 (centres undefined)
85 | 191 to 194 °C | CN(C)Cc1ccc2cc(NC(=O)c3ccc(-c4ccccc4)cc3)ccc2n1
86 | 176 to 179 °C | Nc1ccc(S(=O)(=O)NC(=S)NC23CC4CC(CC(C4)C2)C3)cc1
87 | 160 to 161 °C | CCOC(=O)Cc1nn(Cc2nc3cc(Br)ccc3s2)c(=O)c2ccccc12
88 | 154 to 157 °C | CC1(c2ccccc2)OC(=O)C(Cl)(Cl)C(C(Cl)(Cl)Cl)N1OC(=O)Nc1ccccc1 (centres undefined)
89 | 122 to 125 °C | CCCc1c(Br)c2ccc(C(N)=O)cc2n1Cc1ccccc1Br
90 | 166 °C | CC(CN1CCN(C)CC1)OC(=O)c1c[nH]c2ccccc12 (centres undefined)
91 | 208 to 211 °C | O=C(Nc1n[nH]c(=S)s1)NC(Cc1ccccc1)C(=O)NCc1ccncc1 (centres undefined)

Row | SMILES | melting point
92 | COc1ccc(CC(C)NCC(O)c2cccc(Cl)c2)cc1F (centres undefined) | 93 to 95 °C
93 | Cc1cc(C)cc(COC2CCC(N)(c3ccccc3)C(OCc3cc(C)cc(C)c3)C2)c1 (centres undefined) | 103 to 105 °C
94 | N#Cc1nn(-c2c(Cl)cc(C(F)(F)F)cc2Cl)c(Cl)c1I | 116 °C
95 | N#Cc1nn(-c2c(Cl)cc(C(F)(F)F)cc2Cl)cc1-c1cc(Br)no1 | 145 °C
96 | CCOC(=O)Nc1nc(C)c(-c2nc3ccccc3c(=O)n2-c2cccc(Cl)c2)s1 | 262 to 263 °C
97 | CN1CCC2c3[nH]c4ccccc4c3CCN2C1 (centres undefined) | 168 °C
98 | COc1ccccc1-c1cccc(-n2cnc3cc(C(O)C#N)ccc32)c1 (centres undefined) | 116 to 124 °C
99 | CN1C(=O)CN=C(c2ccccc2F)c2c1cc(Cl)c(N)c2Cl | 234 °C
